In patent publication EP4806891A1 (Kangbaida (Sichuan) Biotechnology Co., Ltd., priority 2023, dated 2025):

Biological target: T1, HEK-Blue-hTLR9 cells (Homo sapiens, UniProt Q9NR96)
T1 construct: expressed in transfected cells; host or cells: HEK-Blue-hTLR9 cells (HEK293-derived reporter line)
T1 sequence (Q9NR96 26-1032): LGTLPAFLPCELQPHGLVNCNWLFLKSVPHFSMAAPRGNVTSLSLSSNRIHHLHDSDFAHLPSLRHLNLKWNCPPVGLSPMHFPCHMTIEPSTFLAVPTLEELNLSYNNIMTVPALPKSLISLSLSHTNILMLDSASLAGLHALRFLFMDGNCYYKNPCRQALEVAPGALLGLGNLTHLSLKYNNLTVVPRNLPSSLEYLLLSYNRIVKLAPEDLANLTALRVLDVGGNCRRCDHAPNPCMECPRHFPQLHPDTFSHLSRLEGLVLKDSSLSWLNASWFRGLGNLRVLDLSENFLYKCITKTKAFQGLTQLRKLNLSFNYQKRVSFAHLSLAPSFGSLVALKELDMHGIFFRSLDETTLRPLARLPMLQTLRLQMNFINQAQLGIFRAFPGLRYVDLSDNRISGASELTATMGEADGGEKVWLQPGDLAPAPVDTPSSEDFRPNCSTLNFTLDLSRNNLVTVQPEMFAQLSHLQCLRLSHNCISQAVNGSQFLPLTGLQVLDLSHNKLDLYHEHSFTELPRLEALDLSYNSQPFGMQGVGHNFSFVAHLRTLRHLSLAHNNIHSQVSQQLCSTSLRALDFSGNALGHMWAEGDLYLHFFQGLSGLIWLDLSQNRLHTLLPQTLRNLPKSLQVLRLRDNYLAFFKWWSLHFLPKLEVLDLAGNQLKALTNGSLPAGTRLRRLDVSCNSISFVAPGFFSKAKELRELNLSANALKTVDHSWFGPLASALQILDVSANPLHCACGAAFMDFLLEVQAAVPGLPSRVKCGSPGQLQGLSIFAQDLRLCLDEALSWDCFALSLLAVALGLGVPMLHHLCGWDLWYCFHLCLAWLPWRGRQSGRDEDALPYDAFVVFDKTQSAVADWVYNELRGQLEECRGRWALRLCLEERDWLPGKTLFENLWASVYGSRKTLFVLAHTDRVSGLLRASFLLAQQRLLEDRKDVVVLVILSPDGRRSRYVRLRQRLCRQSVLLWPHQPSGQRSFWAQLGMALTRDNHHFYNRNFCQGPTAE
Assay: HEK-Blue-hTLR9 cell inhibition assay
Format: cell-based
Settings: ODN2006 1 µM, 16 h, OD 620 nm, read-out: TLR9 IC50
How it was run: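 Cells were pre-incubated 4 h, then co-treated 16 h at 37 °C with compound (10 doses, 0.5–10000 nM final) plus R848 (0.8 µM for TLR7, 3 µM for TLR8) or ODN2006 (1 µM, TLR9). Reporter OD620 gave inhibition relative to DMSO blank and agonist-only controls; IC50 came from curve fitting.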

Structure (SMILES) | IC50 [µM]
N#Cc1ccc(N2C[C@]3(c4nnc(C5(F)CCNCC5)o4)C[C@]3(C(F)(F)F)C2)c2cccnc12 [Compound 60, 5-((1S,5R)-1-(5-(4-fluoropiperidin-4-yl)-1,3,4-oxadiazol-2-yl)-5-(trifluoromethyl)-3-azabicyclo[3.1.0]hexan-3-yl)quinoline-8-carbonitrile] | < 1
CN(C)C12CCC(c3nnc([C@]45CN(c6ccc(C#N)c7ncccc67)C[C@@]4(C(F)(F)F)C5)o3)(CC1)CC2 [Compound 53, 5-((1S,5R)-1-(5-(4-(dimethylamino)bicyclo[2.2.2]octan-1-yl)-1,3,4-oxadiazol-2-yl)-5-(trifluoromethyl)-3-azabicyclo[3.1.0]hexan-3-yl)quinoline-8-carbonitrile] | > 1
N#Cc1ccc(N2C[C@]3(c4nnc(C5CCOCC5)o4)C[C@]3(C(F)(F)F)C2)c2cccnc12 [Compound 12, 5-((1S,5R)-1-(5-(tetrahydro-2H-pyran-4-yl)-1,3,4-oxadiazol-2-yl)-5-(trifluoromethyl)-3-azabicyclo[3.1.0]hexan-3-yl)quinoline-8-carbonitrile] | > 10
NC12CCC(c3nnc([C@]45CN(c6ccc(C(F)(F)F)c7ncccc67)C[C@@]4(C(F)(F)F)C5)o3)(CC1)CC2 [Compound 81, 4-(5-((1S,5R)-5-(trifluoromethyl)-3-(8-(trifluoromethyl)quinolin-5-yl)-3-azabicyclo[3.1.0]hexan-1-yl)-1,3,4-oxadiazol-2-yl)bicyclo[2.2.2]octan-1-amine] | > 1
CN(C)CCc1nnc([C@]23CN(c4ccc(C#N)c5ncccc45)C[C@@]2(C(F)(F)F)C3)o1 [Compound 51, 5-((1S,5R)-1-(5-(2-(dimethylamino)ethyl)-1,3,4-oxadiazol-2-yl)-5-(trifluoromethyl)-3-azabicyclo[3.1.0]hexan-3-yl)quinoline-8-carbonitrile] | > 10
COc1ccc(N2C[C@]3(c4nnc(C5CCN(C)CC5)o4)C[C@]3(C(F)(F)F)C2)c2cccnc12 [Compound 66, 2-((1S,5R)-3-(8-methoxyquinolin-5-yl)-5-(trifluoromethyl)-3-azabicyclo[3.1.0]hexan-1-yl)-5-(1-methylpiperidin-4-yl)-1,3,4-oxadiazole] | > 1
N#Cc1ccc(N2C[C@]3(c4nnc(C5(F)CNC5)o4)C[C@]3(C(F)(F)F)C2)c2cccnc12 [Compound 32, 5-((1S,5R)-1-(5-(3-Fluoroazetidin-3-yl)-1,3,4-oxadiazol-2-yl)-5-(trifluoromethyl)-3-azabicyclo[3.1.0]hexan-3-yl)quinoline-8-carbonitrile] | > 10
CN1CC(Cc2nnc([C@]34CN(c5ccc(C#N)c6ncccc56)C[C@@]3(C(F)(F)F)C4)o2)C1 [Compound 36, 5-((1S,5R)-1-(5-((1-methylazetidin-3-yl)methyl)-1,3,4-oxadiazol-2-yl)-5-(trifluoromethyl)-3-azabicyclo[3.1.0]hexan-3-yl)quinoline-8-carbonitrile] | > 1
N#Cc1ccc(N2C[C@]3(c4nnc(C5CNCC(F)C5)o4)C[C@]3(C(F)(F)F)C2)c2cccnc12 (stereo partly drawn) [Compound 45, 5-((1R,5S)-1-((difluoro-3-methyl)-12-fluoraneyl)-5-(5-(5-fluoropiperidin-3-yl)-1,3,4-oxadiazol-2-yl)-3-azabicyclo[3.1.0]hexan-3-yl)quinoline-8-carbonitrile] | > 10
NC(=O)CN1CCC(c2nnc([C@]34CN(c5ccc(C(F)(F)F)c6ncccc56)C[C@@]3(C(F)(F)F)C4)o2)CC1 [Compound 77, 2-(4-(5-((1S,5R)-5-(trifluoromethyl)-3-(8-(trifluoromethyl)quinolin-5-yl)-3-azabicyclo[3.1.0]hexan-1-yl)-1,3,4-oxadiazol-2-yl)piperidin-1-yl)acetamide] | > 10
CN1CCC(Cc2nnc([C@]34CN(c5ccc(C#N)c6ncccc56)C[C@@]3(C(F)(F)F)C4)o2)CC1 [Compound 37, 5-((1S,5R)-1-(5-((1-methylpiperidin-4-yl)methyl)-1,3,4-oxadiazol-2-yl)-5-(trifluoromethyl)-3-azabicyclo[3.1.0]hexan-3-yl)quinoline-8-carbonitrile] | > 1
CN1CCC(F)(c2nnc([C@]34CN(c5ccc(C#N)c6ncccc56)C[C@@]3(C(F)(F)F)C4)o2)C1 (stereo partly drawn) [Compound 47, 5-((1S,5R)-1-(5-(3-fluoro-1-methylpyrrolidin-3-yl)-1,3,4-oxadiazol-2-yl)-5-(trifluoromethyl)-3-azabicyclo[3.1.0]hexan-3-yl)quinoline-8-carbonitrile] | > 10
CN1CCC(Oc2nnc([C@]34CN(c5ccc(C(F)(F)F)c6ncccc56)C[C@@]3(C(F)(F)F)C4)o2)CC1 [Compound 92, 2-((1-methylpiperidin-4-yl)oxy)-5-((1S,5R)-5-(trifluoromethyl)-3-(8-(trifluoromethyl)quinolin-5-yl)-3-azabicyclo[3.1.0]hexan-1-yl)-1,3,4-oxadiazole] | > 1
N#Cc1ccc(N2C[C@]3(c4nnc(N5CCOCC5)o4)C[C@]3(C(F)(F)F)C2)c2cccnc12 [Compound 27, 5-((1S,5R)-1-(5-morpholino-1,3,4-oxadiazol-2-yl)-5-(trifluoromethyl)-3-azabicyclo[3.1.0]hexan-3-yl)quinoline-8-carbonitrile] | > 10
CN1CCC(n2cc([C@]34CN(c5ccc(C#N)c6ncccc56)C[C@@]3(C(F)(F)F)C4)nn2)CC1 [Compound 71, 5-((1S,5R)-1-(1-(1-methylpiperidin-4-yl)-1H-1,2,3-triazol-4-yl)-5-(trifluoromethyl)-3-azabicyclo[3.1.0]hexan-3-yl)quinoline-8-carbonitrile] | > 1
N#Cc1ccc(N2C[C@]3(c4nnc([C@H]5CN(CC(N)=O)CCO5)o4)C[C@]3(C(F)(F)F)C2)c2cccnc12 [Compound 56, 2-((R)-2-(5-((1S,5R)-3-(8-cyanoquinolin-5-yl)-5-(trifluoromethyl)-3-azabicyclo[3.1.0]hexan-1-yl)-1,3,4-oxadiazol-2-yl)morpholino)acetamide] | > 10
N#Cc1ccc(N2C[C@]3(c4nnc(C5CC6(CNC6)C5)o4)C[C@]3(C(F)(F)F)C2)c2cccnc12 [Compound 18, 5-((1S,5R)-1-(5-(2-azaspiro[3.3]heptan-6-yl)-1,3,4-oxadiazol-2-yl)-5-(trifluoromethyl)-3-azabicyclo[3.1.0]hexan-3-yl)quinoline-8-carbonitrile] | < 1
